Assay results reported in PubChem BioAssay (NCI).
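The concentration for 50% growth inhibition is given as GI50. TGI: total growth inhibition.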

Assays:
Assay in all cases: NCI anticancer screen, dose series, 384-well format
[1] = system: NCI-H522 lung
[2] = system: UACC-257 melanoma
[3] = system: HL-60(TB) leukemia
[4] = system: NCI/ADR-RES ovarian
[5] = system: SN12C renal
[6] = system: NCI-H322M lung
[7] = system: SR leukemia
[8] = system: SK-MEL-5 melanoma
[9] = system: K-562 leukemia
[10] = system: MCF7 breast
[11] = system: RXF 393 renal
[12] = system: SW-620 colon
[13] = system: MDA-MB-435 melanoma
[14] = system: SK-MEL-28 melanoma
[15] = system: HCT-15 colon
[16] = system: OVCAR-8 ovarian
[17] = system: MDA-MB-468 breast
[18] = system: SNB-75 CNS
[19] = system: NCI-H460 NSCLC
[20] = system: MALME-3M melanoma
[21] = system: NCI-H226 lung
[22] = system: NCI-H23 lung
[23] = system: SK-OV-3 ovarian
[24] = system: U251 glioblastoma
[25] = system: IGROV1 ovarian
[26] = system: M14 melanoma
[27] = system: A498 renal
[28] = system: TK-10 renal
[29] = system: SF-539 CNS
[30] = system: T-47D breast

O=C(c1ccc(F)c(F)c1Nc1ccc(I)cc1F)N1CC(O)([C@@H]2CCCCN2)C1
GI50 [1]: 2600 nM | TGI [1]: 17300 nM | GI50 [2]: < 10 nM | TGI [2]: 26.8 nM | GI50 [3]: 10.1 nM | TGI [3]: 375 nM | GI50 [4]: 3420 nM | TGI [4]: 16100 nM | GI50 [5]: 645 nM | TGI [5]: 16000 nM | GI50 [6]: 217 nM | TGI [6]: 6610 nM | GI50 [7]: 1070 nM | TGI [7]: 2330 nM | GI50 [8]: < 10 nM | TGI [8]: 70.3 nM | GI50 [9]: 284 nM | TGI [9]: 1470 nM | GI50 [10]: 3550 nM | TGI [10]: 7290 nM | GI50 [11]: 725 nM | TGI [11]: 2580 nM | GI50 [12]: 41.7 nM | TGI [12]: 5830 nM | GI50 [13]: < 10 nM | TGI [13]: 15800 nM | GI50 [14]: < 10 nM | TGI [14]: 16.3 nM | GI50 [15]: 1250 nM | TGI [15]: 9730 nM | GI50 [16]: 3860 nM | TGI [16]: 10500 nM | GI50 [17]: 3890 nM | TGI [17]: 9320 nM | GI50 [18]: 1390 nM | TGI [18]: 6700 nM | GI50 [19]: 1270 nM | TGI [19]: 5740 nM | GI50 [20]: < 10 nM | GI50 [21]: 230 nM | TGI [21]: 6320 nM | GI50 [22]: 50.5 nM | TGI [22]: 708 nM | GI50 [23]: 5110 nM | TGI [23]: 18600 nM | GI50 [24]: 820 nM | TGI [24]: 8280 nM | GI50 [25]: 120 nM | TGI [25]: 4510 nM | GI50 [26]: < 10 nM | TGI [26]: 14.6 nM | GI50 [27]: 472 nM | TGI [27]: 2950 nM | GI50 [28]: 956 nM | TGI [28]: 10900 nM | GI50 [29]: 969 nM | TGI [29]: 7010 nM | GI50 [30]: 4790 nM | TGI [30]: 12500 nM
